Reference: ChEMBL document CHEMBL4699456 (Bioorg Med Chem Lett, 2020)

Assays:
Assay type in all cases: ADME, organism-based
[1] = Cmax in BALB/c mouse at 10 mg/kg, po; parameters: route oral, dose 10 mg/kg; conditions: in vivo
[2] = Oral bioavailability in BALB/c mouse at 10 mg/kg; conditions: in vivo
[3] = Volume of distribution at steady state in BALB/c mouse at 2 mg/kg, iv; conditions: in vivo, read-out: Vdss
[4] = AUC in BALB/c mouse at 10 mg/kg, po; parameters: dose 10 mg/kg; conditions: in vivo

| Structure (SMILES) | Cmax [1] | bioavailability [2] | Vd [3] | AUC [4] |
| --- | --- | --- | --- | --- |
| O=C(O)[C@H]1CC[C@H](C(=O)N2CC[C@](c3ccc(C(OCc4c(F)cccc4F)(C(F)(F)F)C(F)(F)F)cc3)(S(=O)(=O)c3ccc(F)cc3)C2)CC1 | 2.1 µM | 56% | 1.3 L/kg | 11.3 µM·h |
| O=C(O)[C@H]1CC[C@H](C(=O)N2CC[C@](c3ccc(C(OCC4CCCCC4)(C(F)(F)F)C(F)(F)F)cc3)(S(=O)(=O)c3ccc(F)cc3)C2)CC1 | 4.9 µM | 101% | 1.7 L/kg | 36.8 µM·h |
